Patent US20250313553A1, “ANNULATED 2-AMINO-3-CYANO THIOPHENES AND DERIVATIVES FOR THE TREATMENT OF CANCER” (Boehringer Ingelheim Int'l GmbH Corp., priority 2021, published 2025)

Tests used:
Format in all cases: cell-based
NCI-H358 cells = experiment: NCI-H358 CTG proliferation assay (120 h), assay 2; conditions: Homo sapiens, 384-well, 200 cells per well
Procedure: NCI-H358 cells (ATCC No. CRL-5807) are dispensed into white bottom opaque 96 well plates (Perkin Elmer cat no. 5680) at a density of 2000 cells per well in 100 μL RPMI-1640 ATCC-Formulation (Gibco #A10491)+10% FCS (fetal calf serum) (assay 1) or into black 384-well plates, flat and clear bottom (Greiner, PNr. 781091) at a density of 200 cells per well in 60 μl RPMI-1640 ATCC-Formulation (Gibco #A10491)+10% FCS (fetal calf serum) (assay 2). […] Compounds (10 mM stock in DMSO) are added at logarithmic dose series using the HP Digital Dispenser D300 (Tecan) (assay 1) or the ECHO acoustic liquid handler system (Beckman Coulter) (assay 2), normalizing for added DMSO and including DMSO controls. For the T0 time point measurement, untreated cells are analyzed at the time of compound addition. Plates are incubated for 120 h, and cell viability is measured using CellTiter-Glo luminescent cell viability reagent (Promega product code G7570). Viability (stated as percent of control) is defined as relative luminescence units RLU of each well divided by the RLU of cells in DMSO controls. IC50 values are determined from viability measurements by non-linear regression using a four-parameter model.

AsPC-1 cells = experiment: AsPC-1 CTG proliferation assay (120 h); conditions: Homo sapiens, ASPC1, pancreatic cancer, G12D
Procedure: The CTG assay is designed to measure quantitatively the proliferation of AsPC-1 cells (ATCC […]), using the CellTiter Glow Assay Kit (Promega G7571). Cells are grown in RPMI medium (ATCC) supplemented with Fetal Calf Serum (Life Technologies, Gibco BRL, Cat. No. 10270-106). On “day 0” 2000 AsPC-1 cells are seeded in 60 μL RPMI ATCC+10% FCS+Penstrep in a 384-well plate, flat and clear bottom (Greiner, PNr. 781091). Cells are then incubated in the plates at 37° C. in a CO2 incubator overnight. On day 1, compounds (10 mM stock in DMSO) are added with the ECHO acoustic liquid handler system (Beckman Coulter), including DMSO controls. Plates are incubated for 120 h, and cell viability is measured using CellTiter-Glo luminescent cell viability reagent (Promega product code G7570). Viability (stated as percent of control) is defined as relative luminescence units RLU of each well divided by the RLU of cells in DMSO controls. IC50 values are determined from viability measurements by non-linear regression using a four-parameter model.

SAS cells = experiment: SAS CTG proliferation assay (120 h); conditions: HNSCC, wt amplified
Procedure: (§1) SAS cells (JCRB0260) are dispensed into 384-well plates, flat and clear bottom (Greiner, PNr. 781091) at a density of 300 cells per well in 60 μL DMEM:F12 (Gibco 31330-038)+10% Fetal Calf Serum (HyClone, PNr.: SH30084.03) and incubated at 37° C. in a CO2 incubator overnight. The next day, compounds (10 mM stock in DMSO) are added with the ECHO acoustic liquid handler system (Beckman Coulter), including DMSO controls. Plates are incubated for 120 h, and cell viability is measured using CellTiter-Glo luminescent cell viability reagent (Promega product code G7570). Viability (stated as percent of control) is defined as relative luminescence units RLU of each well divided by the RLU of cells in DMSO controls. IC50 values are determined from viability measurements by non-linear regression using a four-parameter model.

SK-CO-1 cells = experiment: SK-CO-1 CTG proliferation assay (120 h); conditions: Homo sapiens, CRC, G12V
Procedure: as §1, with “SK-CO-1 cells (ATCC” for “SAS cells (JCRB0260)”, “SK-CO-1 cells (ATCC HTB-39) are dispensed” for “SAS cells (JCRB0260) are dispensed”, “density of 500 cells per” for “density of 300 cells per”, “60 μL EMEM (Sigma M5650)+10% Fetal Calf” for “60 μL DMEM:F12 (Gibco 31330-038)+10% Fetal Calf”

LOVO cells = experiment: LOVO CTG proliferation assay (120 h); conditions: Homo sapiens, CRC, G13D
Procedure: as §1, with “LOVO cells (ATCC” for “SAS cells (JCRB0260)”, “LOVO cells (ATCC CCL-229) are dispensed” for “SAS cells (JCRB0260) are dispensed”, “density of 1000 cells per” for “density of 300 cells per”, “60 μL DMEM (Sigma D6429)+10% Fetal Calf” for “60 μL DMEM:F12 (Gibco 31330-038)+10% Fetal Calf”

| IC50 (NCI-H358 cells) | IC50 (AsPC-1 cells) | IC50 (SK-CO-1 cells) | IC50 (LOVO cells) | Structure (SMILES) | IC50 (SAS cells) |
| --- | --- | --- | --- | --- | --- |
| 0.937 µM | 7.24 µM | 4.8 µM | 8.47 µM | C[C@H]1CN(C)CCN1c1cccc(-c2noc([C@@]3(C)CCCc4sc(N)c(C#N)c43)n2)n1 [Example V-1] | 8.02 µM |
| 1.19 µM | – | – | – | CC(C)N1CCCN(c2nccc(-c3noc([C@@]4(C)CCCc5sc(N)c(C#N)c54)n3)n2)[C@@H](C)C1 [Example V-9] | – |
| 0.23 µM | 3.95 µM | 6.65 µM | 1.43 µM | C[C@H](Oc1cccc(-c2noc([C@@]3(C)CCCc4sc(N)c(C#N)c43)n2)n1)[C@@H]1CCCN1C [Example V-8] | 3.1 µM |

| Structure (SMILES) | IC50 (NCI-H358 cells) | IC50 (AsPC-1 cells) | IC50 (SK-CO-1 cells) | IC50 (LOVO cells) | IC50 (SAS cells) |
| --- | --- | --- | --- | --- | --- |
| C[C@H](Oc1ccnc(-c2noc([C@@]3(C)CCCc4sc(N)c(C#N)c43)n2)n1)[C@@H]1CCCN1C [Example V-11] | 0.244 µM | 3.7 µM | 0.737 µM | 0.193 µM | 3.33 µM |
